Numbered stars: 1 amine (or outer) side, 2 acyl side, 3 side chain; on linkers, the order of the positions; unused ones are H or OH. Bridge positions count the residues as written; N and C are the ends. Square brackets hold non-standard residues; d marks the D form. Peptide text beside a SMILES is read from it. * marks the point of attachment. X4 = O=C(O)CN1CCN(CC(=O)O)CCN(CC(=O)N[C@H]2CC[C@H](CC(=O)*)CC2)CCN(CC(=O)O)CC1; Ala(piperidin-4-yl) = O=C([C@H](CC1CCN([*:3])CC1)N[*:1])[*:2]; DOTA = O=C(O)CN1CCN(CC(=O)O)CCN(CC(=O)*)CCN(CC(=O)O)CC1; 2Nal = N[C@@H](Cc1ccc2ccccc2c1)C(=O)O; tBuAla = CC(C)(C)C[C@H](N)C(=O)O; 3Pal = N[C@@H](Cc1cccnc1)C(=O)O; 4Pal = N[C@@H](Cc1ccncc1)C(=O)O; Chg = N[C@H](C(=O)O)C1CCCCC1; Tle = CC(C)(C)[C@H](N)C(=O)O
target: T1, human DLL3 (Homo sapiens, UniProt Q9NYJ7); assay: Affinity determination by Surface Plasmon Resonance (SPR); type: binding; conditions: 25° C., biotinylated human DLL3 immobilized on streptavidin sensor chip, 1:1 binding model; read-out: SPR KD
T1 sequence (Q9NYJ7 27-618): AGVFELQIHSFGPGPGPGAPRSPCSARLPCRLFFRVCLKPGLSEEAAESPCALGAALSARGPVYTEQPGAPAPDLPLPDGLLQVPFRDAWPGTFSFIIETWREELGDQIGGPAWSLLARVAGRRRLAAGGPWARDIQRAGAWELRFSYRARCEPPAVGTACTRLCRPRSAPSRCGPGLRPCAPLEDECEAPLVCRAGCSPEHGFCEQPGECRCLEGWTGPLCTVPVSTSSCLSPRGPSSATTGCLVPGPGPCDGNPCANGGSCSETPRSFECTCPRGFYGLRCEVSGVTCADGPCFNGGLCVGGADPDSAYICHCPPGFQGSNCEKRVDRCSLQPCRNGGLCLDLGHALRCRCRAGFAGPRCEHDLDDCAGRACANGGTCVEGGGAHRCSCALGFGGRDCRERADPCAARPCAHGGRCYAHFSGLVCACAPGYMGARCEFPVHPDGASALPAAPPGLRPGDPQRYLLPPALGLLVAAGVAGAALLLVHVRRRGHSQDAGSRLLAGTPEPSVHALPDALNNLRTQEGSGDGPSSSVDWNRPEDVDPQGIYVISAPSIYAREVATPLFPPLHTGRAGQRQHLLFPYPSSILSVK
How it was run: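 Kinetic and affinity constants were derived by fitting sensorgrams to a 1:1 binding model. Graded compound concentrations flowed at 100 μL/minute in 20 mM phosphate running buffer with 2% DMSO over streptavidin-immobilized biotinylated human DLL3, reference-subtracted.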

First: CC[C@H](C)[C@H](NC(=O)[C@@H](NC(=O)[C@H](Cc1c[nH]c2ccccc12)NC(C)=O)[C@@H](C)O)C(=O)N[C@H]1CSSC[C@@H](C(=O)N[C@@H](Cc2c[nH]c3ccccc23)C(=O)N2CCC[C@H]2C(=O)N[C@H](CCCCNC(=O)CN2CCN(CC(=O)O)CCN(CC(=O)O)CCN(CC(=O)O)CC2)C(N)=O)NC(=O)[C@H](CC(=O)O)NC(=O)[C@H](Cc2cnc[nH]2)NC(=O)[C@H](Cc2c[nH]c3ccccc23)NC(=O)[C@H](CCC(=O)O)NC(=O)[C@H](CC(N)=O)NC1=O [compound 279, Ac-W-T-I-C(3)-N-Glu-W-H-D-C(3)-W-P-[D-Lys(DOTA)]-NH2] (Ac-WTICNEWHDCWP[dK](DOTA)-NH2; disulfide 4-10)
Second: CC(=O)N[C@@H](Cc1c[nH]c2ccccc12)C(=O)N[C@H](C(=O)N[C@@H](CC(C)(C)C)C(=O)N[C@H]1CSSC[C@@H](C(=O)N[C@@H](Cc2c[nH]c3ccccc23)C(=O)N2CCC[C@H]2C(=O)N[C@H](CCCCNC(=O)CN2CCN(CC(=O)O)CCN(CC(=O)O)CCN(CC(=O)O)CC2)C(N)=O)NC(=O)[C@H](CC(=O)O)NC(=O)[C@H](Cc2cnc[nH]2)NC(=O)[C@H](Cc2ccc3ccccc3c2)NC(=O)[C@H](CC(N)=O)NC(=O)[C@H](CC2CCNCC2)NC1=O)[C@@H](C)O [compound 282, Ac-W-T-(t-Bu-Ala)-C(3)-[3-(4-piperidinyl)-Ala]-N-(2Nal)-H-D-C(3)-W-P-[D-Lys(DOTA)]-NH2] (Ac-WT[tBuAla]C[Ala(piperidin-4-yl)]N[2Nal]HDCWP[dK](DOTA)-NH2; disulfide 4-10)
The Kd of the first is higher: 1 to 10 nM for the first, < 1 nM for the second. The second binds more tightly here.

`CC(=O)N[C@@H](Cc1c[nH]c2ccccc12)C(=O)N[C@H](C(=O)N[C@H](C(=O)N[C@H]1CSSC[C@@H](C(=O)N[C@@H](Cc2c[nH]c3ccccc23)C(=O)N2CCC[C@H]2C(=O)N[C@H](CCCCNC(=O)CN2CCN(CC(=O)O)CCN(CC(=O)O)CCN(CC(=O)O)CC2)C(N)=O)NC(=O)[C@H](CC(=O)O)NC(=O)[C@H](Cc2cnc[nH]2)NC(=O)[C@H](Cc2ccc3ccccc3c2)NC(=O)[C@H](CC(N)=O)NC(=O)[C@H](CC2CCNCC2)NC1=O)C(C)(C)C)[C@@H](C)O` [compound 281, Ac-W-T-(Tbg)-C(3)-[3-(4-piperidinyl)-Ala]-N-(2Nal)-H-D-C(3)-W-P-[D-Lys(DOTA)]-NH2] (Ac-WT[Tle]C[Ala(piperidin-4-yl)]N[2Nal]HDCWP[dK](DOTA)-NH2; disulfide 4-10) and `CC(=O)N[C@@H](Cc1c[nH]c2ccccc12)C(=O)N[C@H](C(=O)N[C@H](C(=O)N[C@H]1CSSC[C@@H](C(=O)N[C@@H](Cc2c[nH]c3ccccc23)C(=O)N2CCC[C@H]2C(=O)N[C@H](CCCCNC(=O)CN2CCN(CC(=O)O)CCN(CC(=O)O)CCN(CC(=O)O)CC2)C(N)=O)NC(=O)[C@H](CC(=O)O)NC(=O)[C@H](Cc2cnc[nH]2)NC(=O)[C@H](Cc2ccc3ccccc3c2)NC(=O)[C@H](CC(N)=O)NC(=O)[C@H](Cc2cccnc2)NC1=O)C(C)(C)C)[C@@H](C)O` [compound 288, Ac-W-T-(Tbg)-C(3)-(3Pya)-N-(2Nal)-H-D-C(3)-W-P-[D-Lys(DOTA)]-NH2] (Ac-WT[Tle]C[3Pal]N[2Nal]HDCWP[dK](DOTA)-NH2; disulfide 4-10) cannot be ordered by Kd: < 1 nM for the first, < 1 nM for the second.

`CC(=O)N[C@@H](Cc1c[nH]c2ccccc12)C(=O)N[C@H](C(=O)N[C@H](C(=O)N[C@H]1CSSC[C@@H](C(=O)N[C@@H](Cc2c[nH]c3ccccc23)C(=O)N2CCC[C@H]2C(=O)N[C@H](CCCCNC(=O)CN2CCN(CC(=O)O)CCN(CC(=O)O)CCN(CC(=O)O)CC2)C(N)=O)NC(=O)[C@H](CC(N)=O)NC(=O)[C@H](Cc2cnc[nH]2)NC(=O)[C@H](Cc2ccc3ccccc3c2)NC(=O)[C@H](CC(N)=O)NC(=O)[C@H](CC2CCNCC2)NC1=O)C1CCCCC1)[C@@H](C)O` [compound 283, Ac-W-T-(Chg)-C(3)-[3-(4-piperidinyl)-Ala]-N-(2Nal)-H-(Asn)-C(3)-W-P-[D-Lys(DOTA)]-NH2] (Ac-WT[Chg]C[Ala(piperidin-4-yl)]N[2Nal]HNCWP[dK](DOTA)-NH2; disulfide 4-10) and `CC(=O)N[C@@H](Cc1c[nH]c2ccccc12)C(=O)N[C@H](C(=O)N[C@H](C(=O)N[C@H]1CSSC[C@@H](C(=O)N[C@@H](Cc2c[nH]c3ccccc23)C(=O)N2CCC[C@H]2C(=O)N[C@H](CCCCNC(=O)CN2CCN(CC(=O)O)CCN(CC(=O)O)CCN(CC(=O)O)CC2)C(N)=O)NC(=O)[C@H](C)NC(=O)[C@H](Cc2cnc[nH]2)NC(=O)[C@H](Cc2ccc3ccccc3c2)NC(=O)[C@H](CC(N)=O)NC(=O)[C@H](CC2CCNCC2)NC1=O)C1CCCCC1)[C@@H](C)O` [compound 284, Ac-W-T-(Chg)-C(3)-[3-(4-piperidinyl)-Ala]-N-(2Nal)-H-(Ala)-C(3)-W-P-[D-Lys(DOTA)]-NH2] (Ac-WT[Chg]C[Ala(piperidin-4-yl)]N[2Nal]HACWP[dK](DOTA)-NH2; disulfide 4-10) cannot be ordered by Kd: < 1 nM for the first, < 1 nM for the second.

`CC(=O)N[C@@H](Cc1c[nH]c2ccccc12)C(=O)N[C@H](C(=O)N[C@H](C(=O)N[C@H]1CSSC[C@@H](C(=O)N[C@@H](Cc2c[nH]c3ccccc23)C(=O)N2CCC[C@H]2C(=O)N[C@H](CCCCNC(=O)CN2CCN(CC(=O)O)CCN(CC(=O)O)CCN(CC(=O)O)CC2)C(N)=O)NC(=O)[C@H]([C@@H](C)O)NC(=O)[C@H](Cc2cnc[nH]2)NC(=O)[C@H](Cc2ccc3ccccc3c2)NC(=O)[C@H](CC(N)=O)NC(=O)[C@H](CC2CCNCC2)NC1=O)C1CCCCC1)[C@@H](C)O` [compound 285, Ac-W-T-(Chg)-C(3)-[3-(4-piperidinyl)-Ala]-N-(2Nal)-H-(Thr)-C(3)-W-P-[D-Lys(DOTA)]-NH2] (Ac-WT[Chg]C[Ala(piperidin-4-yl)]N[2Nal]HTCWP[dK](DOTA)-NH2; disulfide 4-10) and `CC(=O)N[C@@H](Cc1c[nH]c2ccccc12)C(=O)N[C@H](C(=O)N[C@H](C(=O)N[C@H]1CSSC[C@@H](C(=O)N[C@@H](Cc2c[nH]c3ccccc23)C(=O)N2CCC[C@H]2C(=O)N[C@H](CCCCNC(=O)CN2CCN(CC(=O)O)CCN(CC(=O)O)CCN(CC(=O)O)CC2)C(N)=O)NC(=O)[C@H](CC(=O)O)NC(=O)[C@H](Cc2cnc[nH]2)NC(=O)[C@H](Cc2ccc3ccccc3c2)NC(=O)[C@H](CC(N)=O)NC(=O)[C@H](Cc2cccnc2)NC1=O)C1CCCCC1)[C@@H](C)O` [compound 287, Ac-W-T-(Chg)-C(3)-(3Pya)-N-(2Nal)-H-D-C(3)-W-P-[D-Lys(DOTA)]-NH2] (Ac-WT[Chg]C[3Pal]N[2Nal]HDCWP[dK](DOTA)-NH2; disulfide 4-10) cannot be ordered by Kd: < 1 nM for the first, < 1 nM for the second.

`CC(=O)N[C@@H](Cc1c[nH]c2ccccc12)C(=O)N[C@H](C(=O)N[C@H](C(=O)N[C@H]1CSSC[C@@H](C(=O)N[C@@H](Cc2c[nH]c3ccccc23)C(=O)N2CCC[C@H]2C(=O)N[C@H](CCCCNC(=O)C[C@H]2CC[C@H](NC(=O)CN3CCN(CC(=O)O)CCN(CC(=O)O)CCN(CC(=O)O)CC3)CC2)C(N)=O)NC(=O)[C@H](CC(=O)O)NC(=O)[C@H](Cc2c[nH]cn2)NC(=O)[C@H](Cc2ccc3ccccc3c2)NC(=O)[C@H](CC(N)=O)NC(=O)[C@H](CC2CCNCC2)NC1=O)C1CCCCC1)[C@@H](C)O` [compound 286, Ac-W-T-(Chg)-C(3)-[3-(4-piperidinyl)-Ala]-N-(2Nal)-H-D-C(3)-W-P-[D-Lys(Chx-DOTA)]-NH2] (Ac-WT[Chg]C[Ala(piperidin-4-yl)]N[2Nal]HDCWP[dK](X4)-NH2; disulfide 4-10) and `CC(=O)N[C@@H](Cc1c[nH]c2ccccc12)C(=O)N[C@H](C(=O)N[C@H](C(=O)N[C@H]1CSSC[C@@H](C(=O)N[C@@H](Cc2c[nH]c3ccccc23)C(=O)N2CCC[C@H]2C(=O)N[C@H](CCCCNC(=O)CN2CCN(CC(=O)O)CCN(CC(=O)O)CCN(CC(=O)O)CC2)C(N)=O)NC(=O)[C@H](CC(=O)O)NC(=O)[C@H](Cc2cnc[nH]2)NC(=O)[C@H](Cc2ccc3ccccc3c2)NC(=O)[C@H](CC(N)=O)NC(=O)[C@H](Cc2ccncc2)NC1=O)C1CCCCC1)[C@@H](C)O` [compound 290, Ac-W-T-(Chg)-C(3)-(4Pya)-N-(2Nal)-H-D-C(3)-W-P-[D-Lys(DOTA)]-NH2] (Ac-WT[Chg]C[4Pal]N[2Nal]HDCWP[dK](DOTA)-NH2; disulfide 4-10) cannot be ordered by Kd: < 1 nM for the first, < 1 nM for the second.

`CC(=O)N[C@@H](Cc1c[nH]c2ccccc12)C(=O)N[C@H](C(=O)N[C@@H](CC(C)(C)C)C(=O)N[C@H]1CSSC[C@@H](C(=O)N[C@@H](Cc2c[nH]c3ccccc23)C(=O)N2CCC[C@H]2C(=O)N[C@H](CCCCNC(=O)CN2CCN(CC(=O)O)CCN(CC(=O)O)CCN(CC(=O)O)CC2)C(N)=O)NC(=O)[C@H](CC(=O)O)NC(=O)[C@H](Cc2cnc[nH]2)NC(=O)[C@H](Cc2ccc3ccccc3c2)NC(=O)[C@H](CC(N)=O)NC(=O)[C@H](Cc2cccnc2)NC1=O)[C@@H](C)O` [compound 289, Ac-W-T-(t-Bu-Ala)-C(3)-(3Pya)-N-(2Nal)-H-D-C(3)-W-P-[D-Lys(DOTA)]-NH2] (Ac-WT[tBuAla]C[3Pal]N[2Nal]HDCWP[dK](DOTA)-NH2; disulfide 4-10) was tested, and the Kd was < 1 nM.
